{
  "source": "patent US20060052319A9",
  "about": "“Sensitization of cells to cytotoxic agents using oligonucleotides directed to nucleotide excision repair or transcritpion coupled repair genes” (priority 2000, published 2006)",
  "key": {"XPA mRNA": {"test_system": "XPA mRNA", "test": "RT-PCR analysis of XPA mRNA levels after oligonucleotide transfection", "assay_type": "cell-based", "settings": "A2780/CP70 cells, 200 nM oligonucleotide with lipofectin, FIG. 3", "experimental": "(§1) Total RNA was isolated from 2×10^6 cells using a total RNA isolation kit (S.N.A.P., Invitrogen, Carlsbad, Calif.) as instructed and was quantitated spectrophotometrically via absorbance at 260 nm. RT-PCR analysis was performed using the Superscript One-Step RT-PCR System (Life Technologies, Rockville, Md.). Ten ng samples of total RNA were used for RT-PCR analyses because it was determined that quantities of RT-PCR products derived from XPA and CSB mRNA varied in a linear fashion when RT-PCR was performed on total RNA samples of 1-50 ng. For CSB, primers: […]\n(§2) were selected to amplify a 235-bp segment.\n(§3) RT-PCR amplification was performed for 40 cycles to detect low mRNA levels while remaining in the linear range of PCR. Aliquots of amplified DNA were resolved via 1.5% agarose gel electrophoresis and visualized by ethidium bromide staining."}, "[1]": {"test_system": "A2780/CP70 ovarian carcinoma cells", "test": "MTS cell proliferation assay, sensitization to cisplatin or oxaliplatin after oligonucleotide transfection", "settings": "for reduction of the ID50 of cisplatin / reduction of the ID50 of oxaliplatin / sensitivity of the cells to cisplatin or oxaliplatin (cytotoxicity of both platinum agents): A2780/CP70 cells transfected with oligonucleotide, three days in drug, MTS assay; for potentiation of cisplatin or oxaliplatin, dose response curves normalized to HYB 1019-transfected cells: A2780/CP70 cells, normalized to control oligonucleotide", "protocol": "(§8) The oligonucleotides targeting CSB (969 and 971) were tested for their ability to sensitize A2780/CP70 cells to cisplatin or oxaliplatin. Cells were transfected with oligonucleotides and 24 hours later were replated on 96 well plates. After culturing in the presence of drug for another three days, cell viability was assessed by the MTS assay.\n(§9) Delivery of oligonucleotides into A2780/CP70 cells for RT-PCR and cell proliferation assays was achieved using Lipofectin (Life Technologies, Rockville, Md.) as per the manufacturer's procedure. The final concentration of oligonucleotides was 200 nM and final concentration of lipofectin was 10 μg/ml. After 4 hours incubation with the lipofectin-oligonucleotides mixture, cells were replaced with normal culture medium and treated as indicated for subsequent assays.\n(§10) For A2780/CP70 cells transfected with oligonucleotides or mismatched controls, cells were harvested via trypsinization 16-24 hrs after transfection and transferred to 96 well plates at 5×10^3 cells per well. […] Twenty-four hours after transfer, cells in quadruplicate wells were treated with cisplatin (Sigma, St. Louis, Mo.) in 2 mM phosphate buffered saline (PBS) or oxaliplatin National Cancer Institute) in 4 mM PBS at serial dilutions in culture medium or with no drug and maintained for three more days. Cell survival was quantitated using the CellTiter 96 Non-radioactive Cell Proliferation Assay (Promega, Madison, Wis.). […] A Trypan blue exclusion assay was also performed to verify that the values obtained via the cell titer assay correlated to numbers of viable cells. Readings from quadruplicate wells were averaged, normalized with respect to readings obtained from cells unexposed to drug, and are presented +/− standard deviation. Statistical significance was assessed via ANOVA (one-way followed by Dunnett's multiple comparison test) using the Prism software package (GraphPad, Inc. San Diego, Calif.). P values reported are for the multiple comparison test."}, "A2780/CP70 cells": {"test_system": "A2780/CP70 cells", "test": "Growth in soft agar (colony) assay with cisplatin or oxaliplatin", "assay_type": "cell-based", "settings": "in the presence of either cisplatin or oxaliplatin, colonies counted 10 days later", "experimental": "An alternative method for assessing the ability of oligonucleotides to inhibit tumor cell proliferation was also utilized. In this method, the transfected cells were transferred to soft agar containing various concentrations of oxaliplatin or cisplatin. Resulting colonies were counted 10 days later.\nFor growth in soft agar assay, cells transfected the previous day with oligonucleotides as described above were suspended (10^4 cells/well) in 0.5 ml of 0.3% Difco Noble agar (Becton Dickinson & Co. Microbiology Systems, Sparks, Md.) supplemented with complete culture medium and layered over 0.5 ml of 0.8% agar-medium in chambers of 24 well plates. Drug was added (day 0) and colonies counted ten days later after staining with nitroblue tetrazolium (Sigma, St. Louis, Mo.) as previously described (Rockx, et al. (2000) Proc. Nat. Acad. Sci. (USA) 97:10503-8). For this assay, statistical comparison was via paired t-test."}, "CSB mRNA": {"test_system": "CSB mRNA", "test": "RT-PCR analysis of CSB mRNA levels after oligonucleotide transfection", "assay_type": "cell-based", "settings": "A2780/CP70 cells, 200 nM oligonucleotide with lipofectin, FIG. 3", "experimental": "as §1, §2, §3"}, "[2]": {"test_system": "A2780/CP70 ovarian carcinoma cells", "test": "MTS cell proliferation assay, sensitization to oxidizing agents (hydrogen peroxide, gamma radiation)", "assay_type": "cell-based", "settings": "MTS assay after three days of growth; for sensitivity of cells to hydrogen peroxide: FIG. 7A; for sensitivity of cells to gamma radiation: FIG. 7B", "from_the_text": "(§4) FIG. 7A is a graphic representation showing that oligonucleotides targeting CSB mRNA sensitize ovarian carcinoma cells to oxidative damage. A2780/CP70 ovarian carcinoma cells were transfected with oligonucleotides HYB 971 (SEQ ID NO:2) targeting CSB mRNA or control antisense oligonucleotide (HYB 1019) (SEQ ID NO:5) and then transferred to 96-well dishes for exposure to hydrogen peroxide at the indicated concentrations, followed by three days of growth in normal medium and subsequent assessment of cell proliferation via MTS assay.\nas §4, with “7B” for “7A”, “gamma radiation” for “hydrogen peroxide”, “doses” for “concentrations,”\n(§5) The cisplatin-resistant ovarian carcinoma cell line A2780/CP70 was maintained in RPMI-1640 medium supplemented with 10% fetal bovine serum, 1× penicillin -streptomycin-neomycin (PSN) (Gibco, Rockville, Md.) 2 mM L-glutamine and 0.2 units/ml insulin (Novo Nordisk Pharmaceuticals, Princeton, N.J.) at 37_C under a humidified 5% CO2 atmosphere. SV40-immortalized CS-B fibroblasts stably transfected with pCSB or control construct (generously provided by Dr. J. Hoeijmakers, Erasmus University, Rotterdam, Netherlands were maintained as previously described (Troelstra et al. (1992) Cell 71:939-953). SV40-immortalized CS-A cell lines (CS3BE.S3.G1+pDR2 and CS3BE.S3.G1+pDR2-CSA), were also maintained as described by Henning et al. (1995) Cell 82:555-564. DNA repair competent (GM 5659C), XP-A (GM2009), and XP-G (GM3021) fibroblasts were obtained from the National Institute of General Medical Sciences Human Genetic Mutant Cell Repository (Camden, N.J.) and maintained as described by Ratner et al. (1998) J. Biolog. Chem. 273:5184-5189. Gamma radiation was administered to cells in a 96 well plate with a Gamma Cell-40 Irradiator (Nordion International, Canada) while the 96 well plate was on ice.\n(§6) P values reported are for the multiple comparison test."}, "[3]": {"test_system": "A2780/CP70 ovarian carcinoma cells", "test": "Plate assay of cell proliferation in the absence of added drug (cell number by hemacytometer)", "assay_type": "cell-based", "settings": "absence of any other anti-cancer agents, two days in culture", "experimental": "FIG. 8 is a graphic representation showing that anti-CSB oligonucleotides retard cell proliferation in the absence of cytotoxic agents. A2780/CP70 ovarian carcinoma cells were transfected with indicated oligonucleotides and maintained in culture media for two more days to assess cell proliferation rate.\nA plate assay was also performed in the absence of added drug. Cells treated with oligonucleotides or mismatched controls were maintained in culture for two days. Cells were then trypsinized and cell number was determined using a hemacytometer. Numbers from three independent experiments were averaged and standard deviation was calculated. Statistical comparison was via paired t-test."}, "[4]": {"test_system": "Immortalized CS-A fibroblasts", "test": "MTS proliferation assay of CS-A fibroblasts versus CSA-restored fibroblasts", "assay_type": "cell-based", "settings": "3 days drug exposure", "experimental": "as §5, §6"}, "[5]": {"test_system": "Immortalized CS-B fibroblasts", "test": "MTS proliferation assay of CS-B fibroblasts versus CSB-restored fibroblasts", "assay_type": "cell-based", "settings": "3 days drug exposure", "experimental": "as §5, §6"}, "XP-A fibroblasts": {"test_system": "XP-A fibroblasts", "test": "MTS proliferation assay of XP-A fibroblasts versus NER proficient 5659C fibroblasts", "assay_type": "cell-based, human", "experimental": "(§7) Primary fibroblasts from XPA, XPG, or repair-competent individuals were exposed to oxaliplatin and assayed as described in FIGS. 1A-D.\nas §5, §6"}, "XP-G fibroblasts": {"test_system": "XP-G fibroblasts", "test": "MTS proliferation assay of XP-G fibroblasts versus NER proficient 5659C fibroblasts", "assay_type": "cell-based, human", "experimental": "as §7, §5, §6"}, "[6]": {"test_system": "A2780/CP70 ovarian carcinoma cells", "protocol": "as §8, §9, §10"}},
  "note": "Where two headings read alike, the source gives them in different places.",
  "data": [
    {"compound": "5′(750)-d(GGTCCATACTCATGTTGATG)-3′ (DNA, backbone and methylation of C not given here) [HYB 963]", "values": [
      {"measurement": "XPA mRNA levels", "setting": "XPA mRNA", "result": "reduce XPA mRNA levels"},
      {"measurement": "reduction of the ID50 of cisplatin", "setting": "[1]", "result": "about 25%"},
      {"measurement": "reduction of the ID50 of oxaliplatin", "setting": "[1]", "result": "about 25%"},
      {"measurement": "sensitivity of the cells to cisplatin or oxaliplatin (cytotoxicity of both platinum agents)", "setting": "[1]", "result": "increase the sensitivity"}
    ]},
    {"compound": "5′(1110)-d(CTGACCTACCACTTCTGCAC)-3′ [HYB 964]", "values": [
      {"measurement": "XPA mRNA levels", "setting": "XPA mRNA", "result": "reduce XPA mRNA levels"},
      {"measurement": "fewer colonies than control HYB 1040 or lipofectin-only (sham) transfected cells", "setting": "A2780/CP70 cells", "result": "about 50%"},
      {"measurement": "reduction of the ID50 of cisplatin", "setting": "[1]", "result": "about 25%"},
      {"measurement": "reduction of the ID50 of oxaliplatin", "setting": "[1]", "result": "about 25%"},
      {"measurement": "sensitivity of the cells to cisplatin or oxaliplatin (cytotoxicity of both platinum agents)", "setting": "[1]", "result": "increase the sensitivity"}
    ]},
    {"compound": "5′(590)-d(CCAAACCTGCACGATACATC)-3′ [HYB 1040, reference compound]", "values": [
      {"measurement": "XPA mRNA levels", "setting": "XPA mRNA", "result": "did not reduce the level of XPA mRNA"}
    ]},
    {"compound": "5′-(3212)-d(GGAACATCATGGTCTGCTCC)-3′ [HYB 971]", "values": [
      {"measurement": "reduction of CSB mRNA levels", "setting": "CSB mRNA", "result": "about 50%"},
      {"measurement": "sensitivity of cells to hydrogen peroxide", "setting": "[2]", "result": "significantly increased the sensitivity"},
      {"measurement": "sensitivity of cells to gamma radiation", "setting": "[2]", "result": "significantly increased the sensitivity"},
      {"measurement": "reduction of proliferation compared to control oligonucleotide (HYB 1019) or sham transfected cells", "setting": "[3]", "result": "about 50%"},
      {"measurement": "reduction of the ID50 of cisplatin", "setting": "[1]", "result": 70, "unit": "%"},
      {"measurement": "reduction of the ID50 of oxaliplatin", "setting": "[1]", "result": 50, "unit": "%"},
      {"measurement": "sensitivity of the cells to cisplatin or oxaliplatin (cytotoxicity of both platinum agents)", "setting": "[1]", "result": "substantially enhanced the cytotoxicity"},
      {"measurement": "potentiation of cisplatin or oxaliplatin, dose response curves normalized to HYB 1019-transfected cells", "setting": "[1]", "result": "robust potentiation"}
    ]},
    {"compound": "O=C([O-])C(=O)[O-].[NH-][C@@H]1CCCC[C@H]1[NH-].[Pt+4]", "note": "(relative stereo) [oxaliplatin, Cis [(1R, 2R) 1,2-cyclohexanediamine-N,N′ oxalato (2-)-O,O′] platinum]", "values": [
      {"measurement": "sensitivity of fibroblasts lacking functional CSA gene product versus restored WT", "setting": "[4]", "result": "significantly more sensitive"},
      {"measurement": "sensitivity of fibroblasts lacking functional CSB gene product versus restored WT", "setting": "[5]", "result": "significantly more sensitive"},
      {"measurement": "sensitivity of XP-A fibroblasts versus NER proficient 5659C fibroblasts", "setting": "XP-A fibroblasts", "result": "significantly more sensitive"},
      {"measurement": "sensitivity of XP-G fibroblasts versus NER proficient 5659C fibroblasts", "setting": "XP-G fibroblasts", "result": "significantly more sensitive"}
    ]},
    {"compound": "N.N.[Cl][Pt][Cl]", "note": "[cisplatin, CIS-diamminedichloroplatinum]", "values": [
      {"measurement": "sensitivity of fibroblasts lacking functional CSA gene product versus restored WT", "setting": "[4]", "result": "significantly more sensitive"},
      {"measurement": "sensitivity of fibroblasts lacking functional CSB gene product versus restored WT", "setting": "[5]", "result": "significantly more sensitive"},
      {"measurement": "sensitivity of XP-A fibroblasts versus NER proficient 5659C fibroblasts", "setting": "XP-A fibroblasts", "result": "significantly more sensitive"},
      {"measurement": "sensitivity of XP-G fibroblasts versus NER proficient 5659C fibroblasts", "setting": "XP-G fibroblasts", "result": "significantly more sensitive"}
    ]},
    {"compound": "5′(1612)-d(GCTACATAAGACCAGTGTGC)-3′ (DNA, backbone and methylation of C not given here) [HYB 1019, reference compound]", "values": [
      {"measurement": "CSB mRNA levels", "setting": "CSB mRNA", "result": "did not reduce the level of CSB mRNA"},
      {"measurement": "sensitivity of the cells to cisplatin or oxaliplatin (cytotoxicity of both platinum agents)", "setting": "[1]", "result": "did not alter the sensitivity"}
    ]},
    {"compound": "5′(2037)-d(GGTGACAGCAGCATTTGGAT)-3′ (DNA, backbone not given here) [HYB 969]", "values": [
      {"measurement": "reduction of CSB mRNA levels", "setting": "CSB mRNA", "result": "about 50%"},
      {"measurement": "sensitivity of cells to hydrogen peroxide", "setting": "[2]", "result": "significantly increased the sensitivity"},
      {"measurement": "sensitivity of cells to gamma radiation", "setting": "[2]", "result": "significantly increased the sensitivity"},
      {"measurement": "reduction of proliferation compared to control oligonucleotide (HYB 1019) or sham transfected cells", "setting": "[3]", "result": "about 50%"},
      {"measurement": "sensitivity of the cells to cisplatin or oxaliplatin (cytotoxicity of both platinum agents)", "setting": "[6]", "result": "substantially enhanced the cytotoxicity"},
      {"measurement": "reduction of the ID50 of cisplatin", "setting": "[1]", "result": 70, "unit": "%"},
      {"measurement": "reduction of the ID50 of oxaliplatin", "setting": "[1]", "result": 50, "unit": "%"},
      {"measurement": "potentiation of cisplatin or oxaliplatin, dose response curves normalized to HYB 1019-transfected cells", "setting": "[1]", "result": "robust potentiation"}
    ]}
  ]
}
